We go through 26 compounds from patent US8853213B2, “Bicyclic compound for modulating G protein-coupled receptors” (Hanmi Pharm. Co., Ltd, priority 2011, dated 2014).

Structures are written as SMILES. Bounds are passed on as bounds.

The target in this assay is T1, GPR119 (Homo sapiens, UniProt Q8TDV5).
T1 construct: host or cells: CHO-K1 (CRE-bla reporter, doxycycline-induced)
T1 sequence (Q8TDV5 1-335): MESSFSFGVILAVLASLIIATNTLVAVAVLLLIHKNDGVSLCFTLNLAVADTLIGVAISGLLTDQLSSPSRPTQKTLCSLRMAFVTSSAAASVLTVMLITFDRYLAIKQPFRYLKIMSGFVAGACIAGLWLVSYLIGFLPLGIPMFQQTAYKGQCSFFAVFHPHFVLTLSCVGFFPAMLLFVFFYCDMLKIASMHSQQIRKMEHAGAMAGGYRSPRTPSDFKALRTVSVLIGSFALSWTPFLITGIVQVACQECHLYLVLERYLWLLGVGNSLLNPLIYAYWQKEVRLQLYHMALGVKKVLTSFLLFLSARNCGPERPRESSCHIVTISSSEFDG
Description: Controlling Effect of GPR119 in CRE-bla CHO-K1 Cells (EC50). It counts as cell-based. The settings on record: GPR119 CRE-bla CHO-K1 cell line, 5 hr incubation with compound, β-lactamase LiveBLAzer-FRET B/G readout; read-out: controlling effect against GPR119 in CRE-bla CHO-K1 cell line (EC50). How it is done: Controlling Effect of GPR119 in CRE-bla CHO-K1 Cells (EC50)
The day before the experiment, GPR119 CRE-bla CHO-K1 cell line purchased from Invitrogen was seeded in a 96 black well plate in an amount of 80 μl at a density of 5×10^4 cells. After the seeding, 10 μl of doxycycline in a concentration of 1 μg/ml was added to each well and incubated in an incubator at 37° C. under 5% CO2 for about 16 to 20 hr.
The day of experiment, sample compounds were performed a 10-fold serial dilution with a culture medium at various concentrations of 1 uM to […]. Considering that the culture medium used in the seeding and doxycycline are together applied, the sample compounds were diluted to a 5-fold dilution of the planned concentration. 20 μl of the compound diluted with the culture medium was added to each well and incubated in the incubator for 5 hr. The compound-untreated group was added with 20 μl of 0.5% dimethyl sulfoxide (DMSO) diluted with the culture medium. After 5 hr from the incubation, substrate mixture of a 6-fold concentration were prepared; 6 μl of 1 mM LiveBLAzer™-FRET B/G(CCF4-AM) substrate, 60 μl of solution B, 904 μl of solution C and 30 μl of solution D. 12 μl of the substrate mixture was added to each well and allowed to be kept at room temperature for 2 hr with shading the light. Fluorescence intensity value of blue channel and green channel was determined by a fluorescence microplate reader at 409 nm/460 nm and 409 nm/[…] (excitation/emission), respectively. In order to confirm the controlling effect of the inventive compounds against GPR119, EC50 (half maximal effective concentration) was determined based on the determined values. EC50, the concentration at which 50% activity of β-lactamase, was determined according to the following Equation: Equation=[(Ti−Tz)/(C−Tz)]×100
[Wherein, Ti: Cell density of the compound-treated group; Tz: Cell density of the negative control group; and C: Cell density of the positive control group]

In general, EC50 refers to the concentration giving half of the maximal effect.

On to `Cn1cc(-c2ccc(S(C)(=O)=O)cc2)c2ncnc(OC3CCN(c4ncc(C(F)(F)F)cn4)CC3)c21` [Example 28, 5-methyl-7-(4-methanesulfonyl-phenyl)-4-(1-(5-(trifluoromethyl)pyrimidin-2-yl)piperidin-4-yloxy)-5H-pyrrolo[3,2-d]pyrimidine], for which the EC50 was less than 100 nM.

Take `CCc1cnc(N2CCC(Oc3ncnc4c(-c5ccc(S(C)(=O)=O)cc5F)cn(C)c34)CC2)nc1` [Example 29, 4-(1-(5-ethylpyrimidin-2-yl)piperidin-4-yloxy)-7-(2-fluoro-4-methanesulfonyl-phenyl)-5-methyl-5H-pyrrolo[3,2-d]pyrimidine]: the EC50 was less than 100 nM.

For the compound `CCCc1cnc(N2CCC(Oc3ncnc4c(-c5ccc(S(C)(=O)=O)cc5F)cn(C)c34)CC2)nc1` [Example 30], the EC50 is less than 100 nM.

With `Cn1cc(-c2ccc(S(C)(=O)=O)cc2F)c2ncnc(OC3CCN(c4ncc(C(F)(F)F)cn4)CC3)c21` [Example 31, 7-(2-fluoro-4-methanesulfonyl-phenyl)-5-methyl-4-(1-(5-(trifluoromethyl)pyrimidin-2-yl)piperidin-4-yloxy)-5H-pyrrolo[3,2-d]pyrimidine], the half-maximal effective concentration (EC50) was less than 100 nM.

On to `CCc1cnc(N2CCC(Oc3ncnc4c(-c5ccc(S(C)(=O)=O)cc5)cn(CC)c34)CC2)nc1` [Example 32, 5-ethyl-4-(1-(5-ethylpyrimidin-2-yl)piperidin-4-yloxy)-7-(4-methanesulfonyl-phenyl)-5H-pyrrolo[3,2-d]pyrimidine], for which the EC50 was less than 100 nM.

Consider `CCc1cnc(N2CCC(Oc3ncnc4c(-c5ccc(S(C)(=O)=O)cc5F)cn(CC)c34)CC2)nc1` [Example 33, 5-ethyl-4-(1-(5-ethylpyrimidin-2-yl)piperidin-4-yloxy)-7-(2-fluoro-4-methanesulfonyl-phenyl)-5H-pyrrolo[3,2-d]pyrimidine], for which the EC50 is less than 100 nM.

`CCCc1cnc(N2CCC(Oc3ncnc4c(-c5ccc(S(C)(=O)=O)cc5F)cn(CC)c34)CC2)nc1` [Example 34, 5-ethyl-7-(2-fluoro-4-methanesulfonyl-phenyl)-4-(1-(5-propylpyrimidin-2-yl)piperidin-4-yloxy)-5H-pyrrolo[3,2-d]pyrimidine]: the EC50 was less than 100 nM.

Regarding `CC(C)c1noc(N2CCC(Oc3ncnc4c(-c5ccc(S(C)(=O)=O)cc5)cn(C)c34)CC2)n1` [Example 35, 3-isopropyl-5-(4-(5-methyl-7-(4-methanesulfonyl-phenyl)-5H-pyrrolo[3,2-d]pyrimidin-4-yloxy)piperidin-1-yl)-1,2,4-oxadiazole], the EC50 was less than 100 nM.

Turning to `CC(C)c1noc(N2CCC(Oc3ncnc4c(-c5ccc(S(C)(=O)=O)cc5F)cn(C)c34)CC2)n1` [Example 36, 5-(4-(7-(2-fluoro-4-methanesulfonyl-phenyl)-5-methyl-5H-pyrrolo[3,2-d]pyrimidin-4-yloxy)piperidin-1-yl)-3-isopropyl-1,2,4-oxadiazole], the concentration giving a half-maximal response (EC50) was less than 100 nM.

For `CCn1cc(-c2ccc(S(C)(=O)=O)cc2F)c2ncnc(OC3CCN(c4nc(C(C)C)no4)CC3)c21` [Example 37, 5-(4-(5-ethyl-7-(2-fluoro-4-methanesulfonyl-phenyl)-5H-pyrrolo[3,2-d]pyrimidin-4-yloxy)piperidin-1-yl)-3-isopropyl-1,2,4-oxadiazole], the EC50 is less than 100 nM.

For `CC(C)c1noc(N2CC[C@H](Oc3ncnc4c(-c5ccc(S(C)(=O)=O)cc5)cn(C)c34)C2)n1` [Example 38, 4-[1-(3-isopropyl-[1,2,4]oxadiazol-5-yl)-pyrrolidin-3-yloxy]-7-(4-methanesulfonyl-phenyl)-5-methyl-5H-pyrrolo[3,2-d]pyrimidine], the EC50 is more than 1000 nM.

Turning to `CCc1cnc(N2CC[C@H](Oc3ncnc4c(-c5ccc(S(C)(=O)=O)cc5)cn(C)c34)C2)nc1` [Example 39, 4-[1-(5-ethylpyrimidin-2-yl)-pyrrolidin-3-yloxy]-7-(4-methanesulfonyl-phenyl)-5-methyl-5H-pyrrolo[3,2-d]pyrimidine], the EC50 was 100 to 1000 nM.

For the compound `Cn1cc(-c2ccc(S(C)(=O)=O)cc2)c2ncnc(OC3CCN(C(=O)NC(C)(C)C)CC3)c21` [Example 40, 4-[7-(4-methanesulfonyl-phenyl)-5-methyl-5H-pyrrolo[3,2-d]pyrimidin-4-yloxy]piperidin-1-carboxylic acid tert-butylamide], the concentration giving a half-maximal response (EC50) is 100 to 1000 nM.

Take `CC(C)c1noc(N2CCC(Oc3ncnc4c(-c5ccc(N)cc5)cn(C)c34)CC2)n1` [Example 41, 4-(4-(1-(3-isopropyl-1,2,4-oxadiazol-5-yl)piperidin-4-yloxy)-5-methyl-5H-pyrrolo[3,2-d]piperidin-7-yl)benzenamine]: the EC50 is more than 1000 nM.

Take `CC(C)c1noc(N2CCC(Oc3ncnc4c(-c5ccc([N+](=O)[O-])cc5)cn(C)c34)CC2)n1` [Example 42, 3-isopropyl-5-(4-(5-methyl-7-(4-nitrophenyl)-5H-pyrrolo[3,2-d]pyrimidin-4-yloxy)piperidin-1-yl)-1,2,4-oxadiazole]: the concentration for a half-maximal effect (EC50) is more than 1000 nM.

With `CCc1cnc(N2CCC(Oc3ncnc4c(-c5ccc(C#N)cc5)cn(C)c34)CC2)nc1` [Example 43, 4-{4-[1-(5-ethylpyrimidin-2-yl)-piperidin-4-yloxy]-5-methyl-5H-pyrrolo[3,2-d]pyrimidin-7-yl}-benzonitrile], the EC50 was more than 1000 nM.

As to `CCc1cnc(N2CCC(Oc3ncnc4c(-c5ccc(C(C)=O)cc5)cn(C)c34)CC2)nc1` [Example 44, 1-(4-{4-[1-(5-ethylpyrimidin-2-yl)-piperidin-4-yloxy]-5-methyl-5H-pyrrolo[3,2-d]pyrimidin-7-yl}-phenyl)-ethanone], the concentration for a half-maximal effect (EC50) fell in the range of 100 to 1000 nM.

Turning to `CC(C)N1CCC(Oc2ncnc3c(-c4ccc(S(C)(=O)=O)cc4)cn(C)c23)CC1` [Example 45, 4-(1-isopropyl-piperidin-4-yloxy)-7-(4-methanesulfonyl-phenyl)-5-methyl-5H-pyrrolo[3,2-d]pyrimidine], the EC50 is 100 to 1000 nM.

With `Cn1cc(-c2ccc(S(C)(=O)=O)cc2)c2ncnc(OC3CCN(C(=O)C(C)(C)C)CC3)c21` [Example 46, 1-{4-[7-(4-methanesulfonyl-phenyl)-5-methyl-5H-pyrrolo[3,2-d]pyrimidin-4-yloxy]-piperidin-1-yl}-2,2-dimethynyl-propan-1-one], the EC50 is 100 to 1000 nM.

Regarding `Cn1cc(-c2ccc(F)nc2)c2ncnc(OC3CCN(C(=O)OC(C)(C)C)CC3)c21` [Example 47, tert-butyl 4-(7-(6-fluoropyridin-3-yl)-5-methyl-5H-pyrrolo[3,2-d]pyrimidin-4-yloxy)piperidine-1-carboxylate], the EC50 is more than 1000 nM.

Take `CCc1cnc(N2CCC(Oc3ncnc4c(-c5ccc(F)nc5)cn(C)c34)CC2)nc1` [Example 48, 4-(1-(5-ethylpyrimidin-2-yl)piperidin-4-yloxy)-7-(6-fluoropyridin-3-yl)-5-methyl-5H-pyrrolo[3,2-d]pyrimidine]: the EC50 was more than 1000 nM.

Regarding `CCc1cnc(N2CCC(COc3ncnc4c(-c5ccc(S(C)(=O)=O)cc5)cn(C)c34)CC2)nc1` [Example 49, 4-((1-(5-ethylpyrimidin-2-yl)piperidin-4-yl)methoxy)-5-methyl-7-(4-methanesulfonyl-phenyl)-5H-pyrrolo[3,2-d]pyrimidine], the concentration giving a half-maximal response (EC50) is 100 to 1000 nM.

As for `CC(C)(C)OC(=O)N1CCC(Oc2ncnc3c(-c4ccc(S(C)(=O)=O)cc4)csc23)CC1` [Example 50, tert-butyl 4-(7-(4-methanesulfonyl-phenyl)thieno[3,2-d]pyrimidin-4-yloxy)piperidine-1-carboxylate], the concentration giving a half-maximal response (EC50) is less than 100 nM.

As to `CC(C)c1noc(N2CCC(Oc3ncnc4c(-c5ccc(S(C)(=O)=O)cc5)csc34)CC2)n1` [Example 51], the half-maximal effective concentration (EC50) was less than 100 nM.

With `CS(=O)(=O)c1ccc(-c2csc3c(OC4CCN(c5nc(CC6CC6)no5)CC4)ncnc23)cc1` [Example 52, 3-(cyclopropylmethyl)-5-(4-(7-(4-methanesulfonyl-phenyl)thieno[3,2-d]pyrimidin-4-yloxy)piperidin-1-yl)-1,2,4-oxadiazole], the EC50 is less than 100 nM.

For the compound `CC(C)(C)c1noc(N2CCC(Oc3ncnc4c(-c5ccc(S(C)(=O)=O)cc5)csc34)CC2)n1` [Example 53, 3-tert-butyl-5-(4-(7-(4-methanesulfonyl-phenyl)thieno[3,2-d]pyrimidin-4-yloxy)piperidin-1-yl)-1,2,4-oxadiazole], the concentration for a half-maximal effect (EC50) is less than 100 nM.
